Results from patent US10179138B2, “Pharmaceutical composition comprising 7β-hydroxycholesterol intravenous administration” (Immunopharm AG, priority 2016, dated 2019).
Like-named read-outs stand apart in the source and are kept apart here.

How the values were obtained:
[1] = cited from earlier work
[2] = assay type: physicochemical
Description: However, if you want to dilute the solution of 7β-hydroxycholesterol/solvent in an aqueous liquid, e.g. for the provision of an infusion solution, the substance flocculates. Thus, the inventors use a solubilizing agent in order to maintain 7β-hydroxycholesterol in the later infusion solution in solution.

[3] = assay type: physicochemical; conditions: for decomposition of 7β-hydroxycholesterol after sterilization: sterilization at 120° C.
Procedure: The solution has been stored in glass vials.
A readily prepared infusion solution (on the basis of physiological saline solution) has been stored at room temperature (<25° C.) for 3 months.

[4] = test system: human cell lines of colon carcinoma; conditions: cited from earlier work
[5] = cited from earlier work; for behaviour in aqueous solution over time: after several hours
[6] = readily prepared infusion solution (physiological saline), room temperature (<25° C.), 3 months

For `CC(C)CCC[C@@H](C)[C@H]1CC[C@H]2[C@@H]3[C@@H](O)C=C4C[C@@H](O)CC[C@]4(C)[C@H]3CC[C@]12C` [7β-hydroxycholesterol], the solubility in water [1] is given as “insoluble in water”, the “behaviour on dilution of solvent solution in aqueous liquid” value [2] is given as “flocculates” and the “solubility in water soluble organic solvent” value [2] is given as “excellent solubility”. The “stability of solution in water soluble organic solvent” value [2] was “remain stable for years”, the “decomposition of 7β-hydroxycholesterol on storage” value ([3]; concentrate stored at 40° C. for 3 months in glass vials) was “did not show a decomposition” and the “decomposition of 7β-hydroxycholesterol after sterilization” value ([3]; concentrate) was “remained stable”. For the same compound, the “decomposition of 7β-hydroxycholesterol after sterilization” value ([3]; readily prepared infusion solution (physiological saline solution)) was “remained stable”, the “appearance / flocculation of solution on storage” value [3, 6] was “remained clear, there was no flocculation” and the “decrease of content of 7β-hydroxycholesterol by HPLC after storage” value [3, 6] was “could not be determined”.

For `CC(C)CCC[C@@H](C)[C@H]1CC[C@H]2[C@@H]3[C@@H](OC(=O)CCC(=O)[O-])C=C4C[C@@H](OC(=O)CCC(=O)[O-])CC[C@]4(C)[C@H]3CC[C@]12C.[Na+].[Na+]` [7β-hydroxycholesteryl-bishemisuccinate-disodium], the induction of apoptosis [4] is listed as “induction of apoptosis”, the “behaviour in aqueous solution over time” value [5] is listed as “starts to decompose and to flocculate” and the “stability in aqueous solution” value [5] is listed as “instable”. For the same compound, the water solubility [5] was “water soluble”.

In the case of “hydroxycholesteryl-bishemisuccinate-diethanolamine”, the induction of apoptosis [4] is listed as “induction of apoptosis”, the “behaviour in aqueous solution over time” value [5] is listed as “starts to decompose and to flocculate” and the “stability in aqueous solution” value [5] is listed as “instable”.
